Source: patent US20260306492A1 (BRISTOL-MYERS SQUIBB COMPANY, priority 2023, published 2026)
Blank lines part the entries; values can stand above or below the compound they belong to.

Assays:
[1] = Thorough QT (TQT) study in healthy adults; format: in vivo, human; conditions: single 400 mg dose
Description: Pharmacokinetic analysis was performed on the plasma concentrations of each participant.

[2] = cited from earlier work
[3] = system: intrinsic and final common pathways of the coagulation cascade (aPTT); test: Activated partial thromboplastin time (aPTT), AXIOMATIC-TKR Phase II; format: in vivo, human; conditions: enoxaparin 40 mg QD sc
From the text: As used herein, the term “activated partial thromboplastin time (aPTT)” refers to a measure of the intrinsic and final common pathways of the coagulation cascade. It represents the time, in seconds, for plasma to clot after addition of phospholipid, an intrinsic pathway activator, and calcium. […] The term ‘partial’ means phospholipid is present but no tissue factor. The normal and reference ranges vary depending on reagent and instrument combinations, particularly with the phospholipid composition.
In some embodiments, aPTT is measured as follows: Plasma samples are incubated with Actin FS aPTT assay reagent containing a standard amount of phospholipid and contact activator (ellagic acid) which activates the intrinsic coagulation pathway. After incubating for 3 minutes, calcium chloride is added to initiate coagulation and formation of a fibrin clot is measured optically. The time to clot formation (measured in seconds) is reported as the Activated Partial Thromboplastin Time (aPTT).
(§1) Assessment of the dose-response for the occurrence of any bleeding was a secondary objective.
(§2) PD analyses were performed on the PD analysis set, defined as subjects who had at least one valid blood sample drawn for PD. Descriptive statistics (N, mean, SD, median, range, CV (%) and IQ range) were used to summarize PD response at each nominal sampling time point by treatment group. Changes from baseline were summarized when applicable. PD response outside of limit of quantitation were not to be imputed and were to be noted in the summary statistics.

thrombin generation = test: Thrombin Generation Assay (TGA), AXIOMATIC-TKR Phase II; format: in vivo, human; conditions: enoxaparin 40 mg QD sc
From the text: As used herein, “Thrombin Generation Assay (TGA)” is a global coagulation assay that evaluates the thrombogenic capacity of a plasma sample and has been proposed that it may better reflect prothrombotic or hemorrhagic states than conventional clotting assays. In the traditional TGA, coagulation of citrated plasma is initiated through the extrinsic pathway by adding tissue factor, phospholipids, and calcium. For this study, in the in-vitro thrombin generation assay (TGA) using human platelet-rich plasma, and a kaolin slurry was used instead to initiate coagulation through the contact activation pathway. Thrombin generation is continuously monitored through the product released by cleavage of a thrombin-specific fluorogenic substrate. The generated thrombogram is used to determine several relevant parameters, including endogenous thrombin potential, defined as the area under the thrombin concentration vs. time curve. […]
as §2

Factor XI = biological target: T1, Factor XI (Homo sapiens, UniProt P03951); test: FXI clotting activity (FXI:c), AXIOMATIC-TKR Phase II; format: in vivo; conditions: enoxaparin 40 mg QD sc
T1 construct: aPTT one-stage clotting with FXI-deficient plasma
Description: As used herein, “Factor XI Clotting Activity” is determined utilizing an aPTT-based 1-stage clotting time assay. Serial dilutions of normal pooled plasma are mixed with FXI-depleted plasma and the clotting times are measured according to standard aPTT protocol, to establish a reference range. Subject test plasma is treated in the same way and compared with the reference plasma.
In some embodiments, the Factor XI Clotting Activity is measured as follows: Factor XI (FXI) activity is measured using a modification of the activated partial thromboplastin time (aPTT) using Actin FS (Siemens Healthcare) on the Siemens BCS®XP analyzer. […] The reference standard, at approximately 100%, is diluted by the BCS®XP analyzer in saline to generate pre-selected calibration levels of FXI. The calibration curve is plotted with FXI activity in percent (%) on the x-axis and clotting time in seconds on the y-axis. A log/lin regression curve fit is used. […] APTT reagent (Actin FS) is added and the mixture is incubated. Following incubation, calcium chloride is added to the mixture and the time to clot formation (measured optically) is compared to the time on the calibration curve. Samples are tested at the base dilution (1:10) prepared by the BCS®XP in saline.
as §1, §2

[4] = system: participants undergoing primary unilateral elective TKR surgery; test: Total venous thromboembolism (VTE) in TKR patients, AXIOMATIC-TKR; format: in vivo, human; conditions: enoxaparin 40 mg once daily

T1 sequence (P03951 19-625): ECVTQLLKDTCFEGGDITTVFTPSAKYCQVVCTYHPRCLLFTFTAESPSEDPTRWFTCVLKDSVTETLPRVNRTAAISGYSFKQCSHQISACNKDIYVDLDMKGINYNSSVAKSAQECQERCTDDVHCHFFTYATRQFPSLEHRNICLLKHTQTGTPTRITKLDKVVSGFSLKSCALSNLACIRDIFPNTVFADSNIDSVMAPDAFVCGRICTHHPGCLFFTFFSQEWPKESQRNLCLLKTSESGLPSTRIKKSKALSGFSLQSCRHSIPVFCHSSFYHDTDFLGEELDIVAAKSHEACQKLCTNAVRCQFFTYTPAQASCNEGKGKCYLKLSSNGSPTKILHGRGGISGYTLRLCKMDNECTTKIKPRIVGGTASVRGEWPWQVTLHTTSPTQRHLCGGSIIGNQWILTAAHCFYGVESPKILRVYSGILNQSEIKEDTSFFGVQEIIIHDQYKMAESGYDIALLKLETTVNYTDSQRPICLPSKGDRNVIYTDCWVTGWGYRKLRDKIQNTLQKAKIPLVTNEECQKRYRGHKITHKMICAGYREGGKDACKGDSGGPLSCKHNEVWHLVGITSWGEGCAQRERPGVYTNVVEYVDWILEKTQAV

Compound: COc1c(N2C[C@@H]3CCCN[C@@H]3C2)c(F)cc2c(=O)c(C(=O)O)cn(C3CC3)c12 [moxifloxacin]
assay sensitivity (positive control) [1]: demonstrated
participants with treatment-emergent change from baseline of QTcB>60 ms ([1]; one participant): 1.7%

Compound: O=C(NC[C@H]1CN(c2ccc(N3CCOCC3=O)cc2)C(=O)O1)c1ccc(Cl)s1 [rivaroxaban]
VTE prevention versus enoxaparin 40 mg once daily ([2]; 10 mg once daily, orthopedic surgery, historical Phase 3): superior to enoxaparin 40 mg once daily
bleeding ([2]; Phase 2 orthopedic surgery studies and with antiplatelets after an ACS): dose-related bleeding

FXI:c, % change from baseline, mean (Factor XI; Day 1 4 h): −7.24%
FXI:c, % change from baseline, median (Factor XI; Day 1 4 h): −7.24%
FXI:c, measured value, mean (Factor XI; Day 1 4 h): 1.06
FXI:c, measured value, median (Factor XI; Day 1 4 h): 1.07
FXI:c, % change from baseline, mean (Factor XI; Day 10-14): 36.64%
FXI:c, % change from baseline, median (Factor XI; Day 10-14): 37.21%
FXI:c, measured value, mean (Factor XI; Day 10-14): 1.36
FXI:c, measured value, median (Factor XI; Day 10-14): 1.39
Compound: enoxaparin
aPTT, measured value, median ([3]; Day 1 2 h): 27.5 s
aPTT, measured value, median ([3]; Day 1 4 h): 27.75 s
aPTT, measured value, median ([3]; Day 2 Predose): 27.4 s
aPTT, measured value, median ([3]; Day 4 4 h): 26.1 s
aPTT, measured value, median ([3]; Day 4 Predose): 25.8 s
aPTT, measured value, median ([3]; Day 10-14): 25.9 s
ETP Lag Time, measured value, median (thrombin generation; Day 1 2 h): 7.02 min
ETP Peak Height, measured value, mean (thrombin generation; Day 1 2 h): 171.15 nmol/L
ETP Lag Time, measured value, mean (thrombin generation; Day 1 4 h): 8.39 min
ETP Lag Time, measured value, median (thrombin generation; Day 1 4 h): 6.83 min
ETP Peak Height, measured value, mean (thrombin generation; Day 1 4 h): 183.54 nmol/L
ETP Peak Height, measured value, median (thrombin generation; Day 1 4 h): 160.49 nmol/L
ETP Lag Time, measured value, mean (thrombin generation; Day 2 Predose): 6.98 min
ETP Lag Time, measured value, median (thrombin generation; Day 2 Predose): 5.7 min
ETP Peak Height, measured value, mean (thrombin generation; Day 2 Predose): 232.14 nmol/L
ETP Peak Height, measured value, median (thrombin generation; Day 2 Predose): 214.37 nmol/L
ETP Lag Time, measured value, mean (thrombin generation; Day 4 4 h): 8.16 min
ETP Lag Time, measured value, median (thrombin generation; Day 4 4 h): 7.44 min
ETP Peak Height, measured value, mean (thrombin generation; Day 4 4 h): 210.21 nmol/L
ETP Peak Height, measured value, median (thrombin generation; Day 4 4 h): 196.02 nmol/L
ETP Lag Time, measured value, mean (thrombin generation; Day 4 Predose): 7.44 min
ETP Lag Time, measured value, median (thrombin generation; Day 4 Predose): 5.96 min
ETP Peak Height, measured value, mean (thrombin generation; Day 4 Predose): 250.47 nmol/L
ETP Peak Height, measured value, median (thrombin generation; Day 4 Predose): 227.87 nmol/L
ETP Lag Time, measured value, mean (thrombin generation; Day 10-14): 11.18 min
ETP Lag Time, measured value, median (thrombin generation; Day 10-14): 8.11 min
ETP Peak Height, measured value, mean (thrombin generation; Day 10-14): 213.56 nmol/L
ETP Peak Height, measured value, median (thrombin generation; Day 10-14): 201.82 nmol/L
total VTE rate [4]: 21.4%
